Among the data in ChEMBL document CHEMBL1139768, “The discovery of potent, selective, and orally bioavailable hNK1 antagonists derived from pyrrolidine” (Bioorg Med Chem Lett, 2007) are IC50, inhibition in vivo and Inhibition values, retold here.

Experiment [1] concerns the target Substance-P receptor (Homo sapiens, UniProt P25103). The experiment is described as follows: Displacement of [125I]-SP from human NK1 receptor expressed in CHO cells.
Experiment [2] has as its system Gerbillinae. Description: Inhibition of GR-73632-induced foot tapping in gerbils at 3 mg/kg, iv after 24 hrs. In kind it is functional. Particulars: for inhibition in vivo at 3 mg/kg: Gerbillinae, iv, 24 h; for Inhibition: 3 mg/kg.
Experiment [3] has as its system Gerbillinae. Description: Inhibition of GR-73632-induced foot tapping in gerbils at 6 mg/kg, iv after 24 hrs. In kind it is functional.

Sequence of Substance-P receptor (P25103 whole entry): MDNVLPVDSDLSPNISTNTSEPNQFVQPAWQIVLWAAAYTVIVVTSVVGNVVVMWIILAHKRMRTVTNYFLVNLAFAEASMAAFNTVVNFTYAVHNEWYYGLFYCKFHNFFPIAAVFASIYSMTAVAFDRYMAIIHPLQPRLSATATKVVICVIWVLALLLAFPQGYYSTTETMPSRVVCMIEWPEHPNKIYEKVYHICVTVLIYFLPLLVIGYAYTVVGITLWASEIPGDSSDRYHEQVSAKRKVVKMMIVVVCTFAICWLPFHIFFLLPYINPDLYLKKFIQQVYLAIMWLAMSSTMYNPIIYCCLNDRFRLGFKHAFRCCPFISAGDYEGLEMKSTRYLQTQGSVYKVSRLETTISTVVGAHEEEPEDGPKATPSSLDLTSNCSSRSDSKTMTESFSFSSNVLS

Broadly, the IC50 is the midpoint of a concentration-inhibition curve. Higher therefore signals a need for much substance. Broadly, the inhibition in vivo is the drop in the measured response relative to a control, in per cent. Read a high inhibition in vivo as a strong effect. In experiment [1], `C[C@@H](O[C@@H]1CN(C(=O)N2CCn3c(nnc3C(F)(F)F)C2)C[C@H]1c1ccc(F)cc1)c1cc(C(F)(F)F)cc(C(F)(F)F)c1` had an IC50 of 470 pM. The same compound registered an inhibition in vivo at 3 mg/kg in experiment [2] of 66%.
The like results for `C[C@@H](O[C@@H]1CN(C2=CC(=O)OC2)C[C@H]1c1ccc(F)cc1)c1cc(C(F)(F)F)cc(C(F)(F)F)c1` were, in that order, 160 pM and 67%.
The like results for `C[C@@H](O[C@@H]1CN(C(=O)[C@@H]2COC(=O)N2)C[C@H]1c1ccc(F)cc1)c1cc(C(F)(F)F)cc(C(F)(F)F)c1` were, in that order, 340 pM and 13%.
One may read the Inhibition as how much of the control response was suppressed. Lower therefore signals little suppression. With `CC1CC(N2C[C@@H](O[C@H](C)c3cc(C(F)(F)F)cc(C(F)(F)F)c3)[C@H](c3ccc(F)cc3)C2)=CC1=O` (single isomer, unassigned; diastereomer A), the half-maximal inhibitory concentration (IC50) in experiment [1] came to 160 pM. The Inhibition in experiment [2] was 85%.
`CC1CC(=O)C=C1N1C[C@@H](O[C@H](C)c2cc(C(F)(F)F)cc(C(F)(F)F)c2)[C@H](c2ccc(F)cc2)C1` (mixture of isomers) came in with an IC50 in experiment [1] of 110 pM. Also, in experiment [2], the inhibition in vivo at 3 mg/kg is 79%.
In the case of `CC(=O)N1C[C@@H](O[C@H](C)c2cc(C(F)(F)F)cc(C(F)(F)F)c2)[C@H](c2ccc(F)cc2)C1`, in experiment [3], testing at 6 mg/kg gave an inhibition in vivo of 26%. The IC50 in experiment [1] is 70 pM.
On to `CC(=O)N1CCC(C(=O)N2C[C@@H](O[C@H](C)c3cc(C(F)(F)F)cc(C(F)(F)F)c3)[C@H](c3ccc(F)cc3)C2)CC1`, for which the IC50 in experiment [1] is 70 pM. The inhibition in vivo at 3 mg/kg in experiment [2] came out at 50%.
In experiment [3], `CC(C)C(=O)N1C[C@@H](O[C@H](C)c2cc(C(F)(F)F)cc(C(F)(F)F)c2)[C@H](c2ccc(F)cc2)C1` registered an inhibition in vivo at 6 mg/kg of 43%. Moreover, the IC50 in experiment [1] amounted to 150 pM.
Compound `C[C@@H](O[C@@H]1CN(C=O)C[C@H]1c1ccc(F)cc1)c1cc(C(F)(F)F)cc(C(F)(F)F)c1` registered an IC50 in experiment [1] of 240 pM.
In the case of `CC(=O)N1CCN(C(=O)N2C[C@@H](O[C@H](C)c3cc(C(F)(F)F)cc(C(F)(F)F)c3)[C@H](c3ccc(F)cc3)C2)CC1`, the IC50 in experiment [1] was 300 pM. The compound further registered an inhibition in vivo at 3 mg/kg in experiment [2] of 57%.
For `C[C@@H](O[C@@H]1CN(C2=CC(=O)CC(C)(C)C2)C[C@H]1c1ccccc1)c1cc(C(F)(F)F)cc(C(F)(F)F)c1` the same measures were 130 pM and 5%.
For the compound `CC1CC(N2C[C@@H](O[C@H](C)c3cc(C(F)(F)F)cc(C(F)(F)F)c3)[C@H](c3ccc(F)cc3)C2)=CC1=O` (stereo in doubt), the IC50 in experiment [1] turned out to be 90 pM. Moreover, the Inhibition in experiment [2] is given as 2%.
In turn, `C[C@@H](O[C@@H]1CN(C(=O)C(C)(C)C)C[C@H]1c1ccccc1)c1cc(C(F)(F)F)cc(C(F)(F)F)c1` displayed an inhibition in vivo at 6 mg/kg in experiment [3] of 45%. The compound also showed an IC50 in experiment [1] of 180 pM.
Regarding `C[C@@H](O[C@@H]1CN(C(=O)NCc2cnn[nH]2)C[C@H]1c1ccc(F)cc1)c1cc(C(F)(F)F)cc(C(F)(F)F)c1`, the IC50 in experiment [1] was found to be 580 pM. Moreover, 3 mg/kg produced 24% inhibition in vivo in experiment [2].
In experiment [1], `C[C@@H](O[C@@H]1CN(C(=O)N(C)C)C[C@H]1c1ccc(F)cc1)c1cc(C(F)(F)F)cc(C(F)(F)F)c1` yielded an IC50 of 380 pM.
Regarding `C[C@@H](O[C@@H]1CN(C2=CC(=O)N(C)C2)C[C@H]1c1ccc(F)cc1)c1cc(C(F)(F)F)cc(C(F)(F)F)c1`, in experiment [1], the IC50 turned out to be 120 pM. The same compound registered an inhibition in vivo at 3 mg/kg in experiment [2] of 8%.
For `CC1=C(N2C[C@@H](O[C@H](C)c3cc(C(F)(F)F)cc(C(F)(F)F)c3)[C@H](c3ccc(F)cc3)C2)CCC1=O` the same measures were 130 pM and 67%.
As to `C[C@@H](O[C@@H]1CN(C2=CC(=O)C(C)(C)CC2)C[C@H]1c1ccccc1)c1cc(C(F)(F)F)cc(C(F)(F)F)c1`, the IC50 in experiment [1] came out at 180 pM. The compound further came in with an inhibition in vivo at 3 mg/kg in experiment [2] of 12%.
The like results for `Cc1cnc(C(=O)N2C[C@@H](O[C@H](C)c3cc(C(F)(F)F)cc(C(F)(F)F)c3)[C@H](c3ccc(F)cc3)C2)cn1` were, in that order, 120 pM and 45%.
